What was measured:
Assay type in all cases: in vivo
[1] = test system: mucosal epithelium and muscle layer of the esophagus; assay: BrdU cell proliferation in mouse esophagus; details: female CD1 mice, 2.5 μg s.c. twice daily, 50 hr period, vs PBS
From the text: In this experiment, the effect of GLP-2 on cell proliferation of the mucosal epithelium and muscle layer of the esophagus was examined.
Female CD1 mice (6 weeks of age, approx. 25 g, Charles River) were housed in plastic bottom, wire lid cages and maintained on a 12 hr light/dark cycle and allowed chow and water ad libitum. The mice were weighed using a Mettler PJ300 scale and randomly allocated to either the control group (phosphate buffer saline injection ("PBS")) or the treatment group (human [Gly^2 ]GLP-2 injection). Each control or treatment group consisted of 2 mice housed together in 1 cage.
The female CD1 mice were treated (subcutaneously) with either human [Gly^2 ]GLP-2 2.5 μg or PBS alone, twice daily (8 a.m. and 6 p.m.) for 2 days prior to the bromodeoxyuridine ("BrdU") injection (50 ug/g body weight, in 0.5 ml). The mice received a total of 5 injections of either human [Gly^2 ]GLP-2 or saline over the previous 50 hours. Mice were fasted 21 hours before sacrifice. The mice were sacrificed 2 hours after receiving the BrdU injection. Upon sacrifice, sections of distal esophagus (the last 2 cm of esophagus adjacent to the gastroduodenal junction) were taken for histological analysis.
The esophageal tissues were fixed in 10% buffered formalin for over 24 hours and then placed in 70% alcohol prior to processing. […]

[2] = test system: indomethacin induced mucosal epithelial damage; assay: indomethacin induced gastroenterocolitis in mice; details: 0.75 μg s.c. twice daily
From the text: In this experiment, the prophylactic and therepeutic effect of GLP-2 on indomethacin induced mucosal epithelial damage was studied.
GLP-2 administration to mice and rats stimulates mucosal growth in both the small and large intestine via activation of crypt cell proliferation and inhibition of enterocyte apoptosis. To address the possibility that GLP-2 may be useful for the therapeutic and/or prophylactic treatment of mucosal epithelial damage, we have studied the use of a novel human GLP-2 analog, h[Gly^2 ]-GLP-2, in mice with experimental indomethacin induced gastroenterocolitis.
Six to eight week old female CD1 mice (approximately 22-28 g, Charles River) were housed in plastic bottom, wire lid cages and maintained on a 12 hr light/dark cycle and allowed chow and water ad libitum throughout the study. The day prior to commencing the experiment, mice were weighed using a Mettler PJ300 scale and randomly allocated to a treatment group. Each treatment group consisted of 5 mice housed together. Subcutaneous injections of PBS or h[Gly^2 ]-GLP-2 peptide were given in the right hind quarter twice a day at 9 am and 7 pm. Injections started 4 days before indomethacin administration. Mice were fasted the night prior to receiving the first dose of indomethacin.
Mice were sacrificed between 9 am and 5 pm. […] Small and large bowel length were also measured. […]

stomach = stomach mass after oral administration in drinking water; details: female CD1 mice, approx. 100 μg per day in drinking water, 12 days, p<0.05 vs normal drinking water
Protocol: In this experiment, the effect of GLP-2 on the stomach mass was examined. Female CD1 mice (6 weeks old) were treated with human [[…] ]GLP-2 by oral administration in drinking water. The drinking water contained 4.3 μg/ml of human [[…] ]GLP-2 and was prepared fresh daily. Each mouse received approximately 100 μg of human [[…] ]GLP-2 per day. Following 12 days of treatment the mice were fasted for 24 hours, anesthetized with CO2 and sacrificed. The stomach of each mouse was removed and weighed.

esophagus = assay: total protein content of mouse esophagus (modified Bradford assay); details: female CD1 mice, 2.5 ug s.c. twice daily for 10 days, vs PBS
Protocol: In this experiment, the effect of human [Gly^2 ]GLP-2 on protein synthesis in the mouse esophagus was examined. Female CD1 mice (6 weeks old) were housed and fed as described in Example 1. Two groups of mice (n=5 per group) were treated twice daily (subcutaneously) with either 0.5 ml PBS alone (control) or 2.5 ug in 0.5 ml PBS for 10 days. Following treatment, mice were anesthetized with CO2 and sacrificed for analysis. One (1) cm segments of esophagus tissue, between 2-4 cm proximal to the gastroduodenal junction, were harvested for analysis of total cellular protein. The 1 cm esophageal segments were placed in 1 ml of PBS and homogenized using a Polytron. Aliquots of the homogenate were taken for protein determination of protein content using the modified Bradford assay (BIORAD).

CC[C@H](C)[C@H](NC(=O)[C@H](Cc1ccccc1)NC(=O)[C@H](CC(=O)O)NC(=O)[C@H](CCCNC(=N)N)NC(=O)[C@H](C)NC(=O)[C@H](C)NC(=O)[C@H](CC(C)C)NC(=O)[C@H](CC(N)=O)NC(=O)[C@H](CC(=O)O)NC(=O)[C@H](CC(C)C)NC(=O)[C@@H](NC(=O)[C@@H](NC(=O)[C@H](CC(N)=O)NC(=O)[C@H](CCSC)NC(=O)[C@H](CCC(=O)O)NC(=O)[C@H](CC(=O)O)NC(=O)[C@H](CO)NC(=O)[C@H](Cc1ccccc1)NC(=O)[C@H](CO)NC(=O)CNC(=O)[C@H](CC(=O)O)NC(=O)CNC(=O)[C@@H](N)Cc1c[nH]cn1)[C@@H](C)O)[C@@H](C)CC)C(=O)N[C@@H](CC(N)=O)C(=O)N[C@@H](Cc1c[nH]c2ccccc12)C(=O)N[C@@H](CC(C)C)C(=O)N[C@H](C(=O)N[C@@H](CCC(N)=O)C(=O)N[C@H](C(=O)N[C@@H](CCCCN)C(=O)N[C@H](C(=O)N[C@H](C(=O)N[C@@H](CC(=O)O)C(=O)O)[C@@H](C)O)[C@@H](C)CC)[C@@H](C)O)[C@@H](C)CC [human [Gly^2]GLP-2]
cellular proliferation of the mucosal epithelium of the esophagus (number of BrDU-positive cells) [1]: significant increases | cellular proliferation of the muscle layer of the esophagus (number of BrDU-positive cells) [1]: significant increases | majority of parameters assessed, especially markers of epithelial damage/inflammation ([2]; indomethacin-treated mice, vs saline): significantly improved | survival ([2]; treatment groups II-V, indomethacin 7 mg/kg, saline-treated controls 45-50%): 75-95% | weights of the stomachs (stomach): significantly increase | protein synthesis (total protein content) in esophagus tissue (esophagus): increase

— patent US6051557A, “Methods of enhancing functioning of the upper gastrointestinal tract” (1149336 Ontario Inc., priority 1998, dated 2000)
